Patent US8946439B2, “Amide compounds, compositions and uses thereof” (Evotec AG, priority 2008, dated 2015)
Like-named read-outs stand apart in the source and are kept apart here.

Legend:
hP2X2/3H = target: T1, hP2X2/3H (Homo sapiens, UniProt P56373+Q9UBL9); assay: Calcium uptake assay (P2X antagonist assay), P2X2/3 heteromer; assay type: cell-based; conditions: read-out: IC50 hP2X2/3H
T1 construct: expressed in transfected cells; host or cells: e.g. HEK293 or 1321N1
T1 sequence (Q9UBL9 1-471): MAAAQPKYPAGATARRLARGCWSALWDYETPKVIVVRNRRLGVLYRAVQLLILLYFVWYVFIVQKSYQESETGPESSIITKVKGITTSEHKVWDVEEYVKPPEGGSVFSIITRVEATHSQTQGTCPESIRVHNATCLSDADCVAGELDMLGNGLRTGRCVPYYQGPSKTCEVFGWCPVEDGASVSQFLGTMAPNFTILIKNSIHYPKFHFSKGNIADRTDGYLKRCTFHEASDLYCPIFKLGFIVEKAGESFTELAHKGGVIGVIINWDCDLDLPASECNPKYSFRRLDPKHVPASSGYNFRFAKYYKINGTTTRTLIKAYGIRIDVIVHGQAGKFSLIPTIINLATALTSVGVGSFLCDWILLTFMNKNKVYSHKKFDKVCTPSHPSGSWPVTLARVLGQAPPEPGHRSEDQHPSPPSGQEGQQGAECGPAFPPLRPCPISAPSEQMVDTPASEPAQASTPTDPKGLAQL
T1 sequence (P56373 1-397): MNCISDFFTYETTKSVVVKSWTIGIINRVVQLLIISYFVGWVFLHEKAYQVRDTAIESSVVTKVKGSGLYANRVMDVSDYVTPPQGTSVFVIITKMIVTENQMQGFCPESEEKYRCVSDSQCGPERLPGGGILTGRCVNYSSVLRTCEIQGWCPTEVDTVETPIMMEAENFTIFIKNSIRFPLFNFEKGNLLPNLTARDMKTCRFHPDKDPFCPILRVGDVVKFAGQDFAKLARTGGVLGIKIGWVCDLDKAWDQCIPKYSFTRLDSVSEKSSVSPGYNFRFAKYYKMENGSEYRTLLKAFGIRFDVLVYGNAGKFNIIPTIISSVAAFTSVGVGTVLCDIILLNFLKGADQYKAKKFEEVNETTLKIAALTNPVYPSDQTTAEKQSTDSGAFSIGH
Method in brief: (§1)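 Stably or transiently transfected HEK293 or 1321N1 cells; the heteromer is made by adding P2X3 to a P2X2-stable line, with heteromer function isolated pharmacologically. The peak-minus-baseline FLIPR calcium signal gives % inhibition and a 4-parameter-logistic IC50.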

hP2X3 = target: T2, hP2X3 (Homo sapiens, UniProt P56373); assay: Calcium uptake assay (P2X antagonist assay), P2X3 homomer; assay type: cell-based; conditions: read-out: IC50 hP2X3
T2 construct: expressed in transfected cells; host or cells: e.g. HEK293 or 1321N1
T2 sequence (P56373 1-397): T1 sequence (P56373 1-397)
Method in brief: as §1

[1] = Ca influx (calcium uptake assay), hP2X2/3H
[2] = Ca influx (calcium uptake assay), hP2X3
[3] = Ca influx, calcium uptake assay

Row | IC50 (hP2X2/3H; [1]) [µM] | IC50 (hP2X3; [2]) [µM] | IC50 (hP2X2/3H; [3]) [µM] | IC50 (hP2X3; [3]) [µM] | Compound
1 | < 0.1 | < 0.1 |  |  | Cc1ccc(-c2cc(Oc3nc(C)cs3)cc(C(=O)N[C@H](C)c3ccc(C)nc3)c2)c(C#N)c1 [Compound 373]
2 | 0.1 to 0.5 | 0.1 to 0.5 |  |  | Cc1ccc(-c2cc(Oc3nc(-c4ccccc4)cs3)cc(C(=O)N[C@H](C)c3ccc(C)nc3)c2)nc1 [Compound 375]
3 | < 0.1 | < 0.1 |  |  | Cc1ccc(-c2cc(OC(C)CO)cc(C(=O)N[C@H](C)c3ccc(C)nc3)c2)c(C#N)c1 (stereo partly drawn) [Compound 377]
4 | < 0.1 | < 0.1 |  |  | CCC(O)c1cc(C(=O)N[C@H](C)c2ccc(C)nc2)cc(-c2ccc(C)cc2)c1 (stereo partly drawn) [Compound 379]
5 | 0.1 to 0.5 | < 0.1 |  |  | Cc1ccc(-c2cc(C(=O)NCc3ccc(C)nc3)cc(C(O)CN3CC(O)C3)c2)cc1 (stereo not drawn) [Compound 388]
6 | 0.1 to 0.5 | 0.1 to 0.5 |  |  | Cc1ccc(-c2cc(Oc3nc4ccccc4s3)cc(C(=O)N[C@H](C)c3ccc(C)nc3)c2)c(C#N)c1 [Compound 392]
7 | < 0.1 | < 0.1 |  |  | CCC(O)c1cc(C(=O)N[C@H](C)c2cnc(C)nc2)cc(-c2ccc(C)cc2C#N)c1 (stereo partly drawn) [Compound 396]

The remaining lines, values behind:

Row | Compound | IC50 (hP2X2/3H; [1]) [µM] | IC50 (hP2X3; [2]) [µM] | IC50 (hP2X2/3H; [3]) [µM] | IC50 (hP2X3; [3]) [µM]
8 | Cc1ccc(-c2cc(Oc3ncc(CO)s3)cc(C(=O)N[C@H](C)c3ccc(C)nc3)c2)nc1 [Compound 372] | < 0.1 | < 0.1 |  | 
9 | Cc1ccc(-c2cc(Oc3nc(C)cs3)cc(C(=O)N[C@H](C)c3ccc(C)nc3)c2)nc1 [Compound 374] | < 0.1 | < 0.1 |  | 
10 | Cc1ccc(-c2cc(Oc3nc4ccccc4s3)cc(C(=O)N[C@H](C)c3ccc(C)nc3)c2)nc1 [Compound 376] | < 0.1 | < 0.1 |  | 
11 | COCC(CO)Oc1cc(C(=O)N[C@H](C)c2ccc(C)nc2)cc(-c2ccc(C)cc2C#N)c1 (stereo partly drawn) [Compound 378] | < 0.1 | < 0.1 |  | 
12 | COCC(OC)c1cc(C(=O)N[C@H](C)c2ccc(C)nc2)cc(-c2ccc(C)cc2)c1 (stereo partly drawn) [Compound 380] | < 0.1 | < 0.1 |  | 
13 | Cc1ccc(-c2cc(Oc3nc(C)cs3)cc(C(=O)N[C@H](C)c3ccc(C)nc3)c2)cc1 [Compound 381] | < 0.1 | < 0.1 |  | 
14 | Cc1ccc(-c2cc(Oc3nc(Cl)cs3)cc(C(=O)N[C@H](C)c3ccc(C)nc3)c2)nc1 [Compound 384] | < 0.1 | < 0.1 |  | 
15 | Cc1ccc(-c2cc(C(=O)NCc3ccc(Cl)cc3Cl)cc(S(C)(=O)=O)c2)nc1 [Compound 385] | 0.1 to 0.5 | 0.1 to 0.5 |  | 
16 | Cc1ccc(-c2cc(C(=O)NC(C)c3ccc(Cl)cc3Cl)cc(S(C)(=O)=O)c2)nc1 (stereo not drawn) [Compound 387] | > 1 | 0.1 to 0.5 |  | 
17 | COC1CCN(CC(O)c2cc(C(=O)NCc3ccc(C)nc3)cc(-c3ccc(C)cc3)c2)CC1 (stereo not drawn) [Compound 389] | 0.1 to 0.5 | < 0.1 |  | 
18 | Cc1ccc(-c2cc(C(=O)NCc3ccc(C)nc3)cc(C(O)CN3CCOCC3CO)c2)cc1 (stereo not drawn) [Compound 390] | < 0.1 | < 0.1 |  | 
19 | Cc1ccc(-c2cc(C(=O)NCc3ccc(C)nc3)cc(C(O)CN3CC(C)OC(C)C3)c2)cc1 (stereo not drawn) [Compound 391] | < 0.1 | < 0.1 |  | 
20 | Cc1ccc(-c2cc(Oc3nc4c(s3)CCCC4)cc(C(=O)N[C@H](C)c3ccc(C)nc3)c2)cc1 [Compound 393] | 0.1 to 0.5 | 0.1 to 0.5 |  | 
21 | Cc1ccc(-c2cc(Oc3nc(Cl)cs3)cc(C(=O)N[C@H](C)c3ccc(C)nc3)c2)c(C#N)c1 [Compound 395] | < 0.1 | < 0.1 |  | 
22 | Cc1ccc(-c2cc(C(=O)N[C@H](C)c3cnc(C)nc3)cc(C(O)C(C)C)c2)cc1 (stereo partly drawn) [Compound 397] | < 0.1 | < 0.1 |  | 
23 | Cc1ccc(-c2cc(C(=O)N[C@H](C)c3cnc(C)nc3)cc(C(C)(C)O)c2)cc1 [Compound 398] |  |  | < 0.1 | < 0.1
24 | Cc1ccc(-c2cc(C(=O)NCc3ccc(C)nc3)cc(C(O)CN3CC4CN(C)CC4C3)c2)cc1 (stereo not drawn) [Compound 399] |  |  | 0.501 to 1 | 0.1 to 0.5
